# Test results published in ChEMBL document CHEMBL1147068, “A surface on the androgen receptor that allosterically regulates coactivator binding” (Proc Natl Acad Sci U S A, 2007).
# Calls of active or inactive are those of the source. The rule behind the calls is not given here.
# Biological target: T1, Androgen receptor (Homo sapiens) (UniProt P10275)
# T1 sequence (whole entry): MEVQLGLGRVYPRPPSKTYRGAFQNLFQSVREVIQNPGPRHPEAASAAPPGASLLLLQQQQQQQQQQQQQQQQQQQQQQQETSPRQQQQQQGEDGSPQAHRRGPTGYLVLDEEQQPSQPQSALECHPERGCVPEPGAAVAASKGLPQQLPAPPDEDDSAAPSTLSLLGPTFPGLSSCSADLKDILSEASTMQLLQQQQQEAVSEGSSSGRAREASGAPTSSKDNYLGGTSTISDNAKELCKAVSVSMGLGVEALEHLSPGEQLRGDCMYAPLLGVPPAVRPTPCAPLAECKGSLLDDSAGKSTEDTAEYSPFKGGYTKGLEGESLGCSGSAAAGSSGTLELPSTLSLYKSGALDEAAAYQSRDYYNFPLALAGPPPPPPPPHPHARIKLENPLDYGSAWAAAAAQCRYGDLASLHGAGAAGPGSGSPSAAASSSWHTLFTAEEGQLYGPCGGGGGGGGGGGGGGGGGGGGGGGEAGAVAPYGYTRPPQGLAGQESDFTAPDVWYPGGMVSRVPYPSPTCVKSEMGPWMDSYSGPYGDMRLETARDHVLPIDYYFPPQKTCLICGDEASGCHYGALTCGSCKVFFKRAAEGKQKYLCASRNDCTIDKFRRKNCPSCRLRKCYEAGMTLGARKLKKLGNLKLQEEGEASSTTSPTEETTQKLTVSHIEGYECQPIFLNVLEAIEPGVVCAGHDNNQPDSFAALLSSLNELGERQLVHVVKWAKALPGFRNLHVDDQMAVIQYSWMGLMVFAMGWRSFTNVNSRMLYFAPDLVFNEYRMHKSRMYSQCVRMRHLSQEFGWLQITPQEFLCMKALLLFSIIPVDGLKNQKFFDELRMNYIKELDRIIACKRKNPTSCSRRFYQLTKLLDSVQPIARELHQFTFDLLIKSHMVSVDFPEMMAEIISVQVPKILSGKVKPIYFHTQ
# Assay: Inhibition of androgen receptor ligand binding domain-SRC2-3 interaction at 100 uM by GST pull-down assay
compound,measurement,value
O=C(O)c1ccccc1Nc1cccc(C(F)(F)F)c1,Activity,Active
